Kd data for 45 compounds are collected here from ChEMBL document CHEMBL5729293, “Inhibitors of KEAP1-Nrf2 protein-protein interaction” (2022).

Some results are limits rather than exact numbers.

This assay in a line: Fluorescence Based Assay: The details of the KEAP1 KELCH ThermoFluor® Assay Construct are as follows: Kelch domain of human KEAP 1 (321-624 aa) was used in the assay. The protein was expressed in E. coli with 6His tag that was cleaved prior to receipt for use.ThermoFluor® experiments were carried out using instruments owned by Janssen Research and Discovery, L.L.C. through its acquisition of 3-Dimensional Pharmaceuticals, Inc. 1,8-ANS (Invitrogen) was used as a fluorescent dye. Protein (KEAP Kelch) and compound solutions were dispensed into black 384-well polypropylene PCR microplates (Abgene) and overlayed with silicone oil (1 μL, Fluka, type DC 200) to prevent evaporation.Reference wells contained KEAP Kelch without compounds, and the assay conditions were as follows: 1.1 μM (0.037mg/mL) KEAP Kelch, 80 μM 1,8-ANS, 25 mM PIPES, pH 7.0, 100 mM NaCl, 0.002% Tween-20. Background: In DSF a fluorescence change marks the thermal transition of the protein.
A word on the Kd: it is the equilibrium constant for the complex coming apart. `Cc1ccc([C@H](CC(=O)O)c2ccn3c(C(F)(F)F)nnc3c2C)cc1CN1C[C@H]2CCCCN2c2ncc(C#N)cc2S1(=O)=O`: the Kd is < 1 nM. The result for `Cc1cnc([C@@H](c2ccn3c(C(F)F)nnc3c2C)C(C)(C)C(=O)O)cc1CN1CC2(CCOCC2)Oc2nc(OCCN3CCCC3)c(C)cc2S1(=O)=O` reads < 1 nM.

Regarding `Cc1cnc2c(c1)S(=O)(=O)N(Cc1cc([C@H](CC(=O)O)c3ccn4c(C(F)(F)F)nnc4c3C)ccc1Cl)CC1CCCCN21` (stereo not given in full), the Kd was < 1 nM. On to `Cc1ccc([C@H](CC(=O)O)c2ccn3c(C(F)(F)F)nnc3c2C)cc1CN1C[C@H]2COCCN2c2ncc(C#N)cc2S1(=O)=O`, for which the Kd is < 1 nM. As for `Cc1ccc([C@@H](c2ccn3c(C(F)(F)F)nnc3c2C)C(C)(C)C(=O)O)cc1CN1CC2(CCOCC2)Oc2nc(CCC(=O)NCCOCCN)ccc2S1(=O)=O`, the dissociation constant (Kd) was > 10000 nM. The result for `Cc1ccc([C@H](CC(=O)O)c2ccc3c(nnn3CC3CC3)c2C)cc1CN1C[C@H]2CCCN2c2ncccc2S1(=O)=O` reads < 1 nM. With `Cc1ccc([C@@H](CC(=O)O)c2ccn3c(C(F)F)nnc3c2C)cc1CN1C[C@H]2CCCCN2c2ncc(C#N)cc2S1(=O)=O`, the dissociation constant (Kd) was < 1 nM. Regarding `CCn1nnc2c(C)c([C@H](c3ccc(C)c(CN4CC5(CCOCC5)Oc5ncc(C)cc5S4(=O)=O)n3)C(C)(C)C(=O)O)ccc21`, the Kd is < 1 nM.

Turning to `CCn1nnc2c(C)c([C@@H](CC(=O)O)c3ccc(C)c(CN4C[C@@H]5CCCCN5c5ncccc5S4(=O)=O)n3)ccc21`, the Kd is < 1 nM. For `Cc1ccc(C(c2ccn3c(C(F)(F)F)nnc3c2C)C(C)(C)C(=O)O)cc1CN1CC2(CCOCC2)Oc2nc(OCCCO)ccc2S1(=O)=O` (stereo not given), the Kd is < 1 nM.

Consider `Cc1cnc2c(c1)S(=O)(=O)N(Cc1cc([C@@H](c3ccn4c(C(F)(F)F)nnc4c3C)C(C)(C)C(=O)O)ncc1C)CC1(CCOCC1)O2`, for which the Kd is < 1 nM. As for `Cc1ccc([C@@H](c2ccn3c(C(F)(F)F)nnc3c2C)C(C)(C)C(=O)O)cc1CN1C[C@H]2CCCCN2c2ncc(C#N)cc2S1(=O)=O`, the Kd was < 1 nM. In the case of `Cc1cnc2c(c1)S(=O)(=O)N(Cc1cc([C@@H](CC(=O)O)c3ccn4c(C(F)(F)F)nnc4c3C)ccc1C)CC1(CC1)O2`, the equilibrium dissociation constant (Kd) is < 1 nM. Regarding `Cc1ccc([C@H](CC(=O)O)c2cc(OC3CC3)c3c(c2)nnn3C)cc1CN1C[C@H]2CCCCN2c2ncccc2S1(=O)=O`, the Kd is < 1 nM. Take `Cc1ccc(C(CC(=O)O)c2ccn3c(C(F)(F)F)nnc3c2C)nc1CN1CC2(COC2)Oc2ncccc2S1(=O)=O` (stereo not given): the Kd is < 1 nM. The result for `Cc1ccc([C@H](CC(=O)O)c2ccn3c(C(F)(F)F)nnc3c2)cc1CN1C[C@@H]2CCCN2c2ncccc2S1(=O)=O` reads < 1 nM; that for `CC[C@@H]1CN(Cc2cc([C@@H](CC(=O)O)c3ccn4c(C(F)(F)F)nnc4c3C)ccc2C)S(=O)(=O)c2cccnc2O1`, < 1 nM. The same measure for `Cc1ccc([C@H](c2ccn3c(C(F)(F)F)nnc3c2C)C(C)(C)C(=O)O)cc1CN1CC2(CCOCC2)Oc2nc(OCCN3CCC(F)(F)CC3)ccc2S1(=O)=O`: < 1 nM; for `Cc1ccc([C@@H](c2ccn3c(C(F)(F)F)nnc3c2C)C(C)(C)C(=O)O)nc1CN1CC2(CC2)Oc2nc(OCCN3CCCC3)c(C)cc2S1(=O)=O`: < 1 nM; for `Cc1ccc([C@@H](CC(=O)O)c2ccc3c(nnn3C3CC3)c2C)cc1CN1C[C@H]2CCCCN2c2ncccc2S1(=O)=O`: < 1 nM.

On to `Cc1ccc([C@H](CC(=O)O)c2ccn3c(C(F)F)nnc3c2C)cc1CN1C[C@H]2CCCN2c2ncc(C#N)cc2S1(=O)=O`, for which the Kd is < 1 nM. The result for `Cc1ccc([C@H](CC(=O)O)c2ccn3c(C(F)(F)F)nnc3c2C)cc1CN1CC2(CC2)Oc2nc(NCCN3CCOCC3)ccc2S1(=O)=O` reads < 1 nM. The same measure for `Cc1ccc([C@H](CC(=O)O)c2ccn3c(C(F)(F)F)nnc3c2C)cc1CN1C[C@H]2CCCCN2c2nc(C(N)=O)ccc2S1(=O)=O`: < 1 nM; for `Cc1ccc(C(CC(=O)O)c2ccn3c(C(F)F)nnc3c2C)cc1CN1C[C@@H]2CCCN2c2ncc(C#N)cc2S1(=O)=O` (stereo not given in full): < 1 nM; for `Cc1ccc([C@H](CC(=O)O)c2ccn3c(C(F)F)nnc3c2C)cc1CN1C[C@H]2CCCN2c2ncccc2S1(=O)=O`: < 1 nM. The result for `Cc1cnc2c(c1)S(=O)(=O)N(Cc1cc([C@H](CC(=O)O)c3ccn4c(C(F)(F)F)nnc4c3C)ccc1C)CC1(CCOCC1)O2` reads < 1 nM; that for `Cc1ccc([C@H](CC(=O)O)c2ccn3c(C(F)(F)F)nnc3c2C)cc1CN1CC2(CCOCC2)Oc2ncccc2S1(=O)=O`, < 1 nM. Regarding `CCc1nnc2c(C)c(C(CC(=O)O)c3ccc(C)c(CN4C[C@H]5CCCN5c5ncccc5S4(=O)=O)c3)ccn12` (stereo not given in full), the Kd was < 1 nM.

On to `Cc1cnc2c(c1)S(=O)(=O)N(Cc1cc([C@@H](c3ccn4c(C(F)(F)F)nnc4c3C)C(C)(C)C(=O)O)ccc1C)CC1(COC1)O2`, for which the Kd is < 1 nM. In the case of `Cc1ccc(C(CC(=O)O)c2ccc3c(nnn3CC3CC3)c2C)cc1CN1CC2(CC2)N(C)c2ncccc2S1(=O)=O` (stereo not given), the Kd is < 1 nM. The same measure for `Cc1cnc2c(c1)S(=O)(=O)N(Cc1cc([C@H](c3cc4cc(C)nnc4n3C)C(C)(C)C(=O)O)ccc1C)CC1(CC1)O2`: < 1 nM. The result for `Cc1cc2cc([C@H](CC(=O)O)c3ccc(C)c(CN4C[C@H]5CCCN5c5ncccc5S4(=O)=O)c3)n(C)c2nn1` reads < 1 nM; that for `Cc1ccc([C@@H](CC(=O)O)c2ccn3c(C(F)(F)F)nnc3c2C)nc1CN1C[C@@H]2CCCCN2c2ncc(C#N)cc2S1(=O)=O`, < 1 nM.

As for `Cc1ccc([C@H](c2ccn3c(C(F)(F)F)nnc3c2C)C(C)(C)C(=O)O)cc1CN1CC2(CCNCC2)Oc2ncccc2S1(=O)=O`, the Kd is > 10000 nM. The result for `Cc1ccc([C@H](CC(=O)O)c2ccc3c(nnn3CC3CC3)c2C(F)F)cc1CN1C[C@H]2CCCCN2c2ncccc2S1(=O)=O` reads < 1 nM. The result for `CCn1nnc2c(C)c(C(CC(=O)O)c3ccc(C)c(CN4CC5(COC5)Oc5ncccc5S4(=O)=O)c3)ccc21` (stereo not given) reads < 1 nM; that for `CC[C@@H]1CN(Cc2nc(C(CC(=O)O)c3ccc4c(nnn4C4CC4)c3C)ccc2C)S(=O)(=O)c2cccnc2O1` (stereo not given in full), < 1 nM. Turning to `Cc1ccc([C@H](CC(=O)O)c2ccn3c(C(F)(F)F)nnc3c2C)cc1CN1C[C@H]2COCCN2c2ncc(Cl)cc2S1(=O)=O`, the Kd is < 1 nM.

Take `Cc1cnc2c(c1)S(=O)(=O)N(Cc1cc(C(c3ccc4c(nnn4C4CC4)c3C)C(C)(C)C(=O)O)cnc1C)CC1(CCOCC1)O2` (stereo not given): the Kd was < 1 nM. The same measure for `Cc1ccc([C@H](c2ccn3c(C(F)(F)F)nnc3c2C)C(C)(C)C(=O)O)cc1CN1CC2(CCOCC2)Oc2nc(NCCN3CCOCC3)c(C)cc2S1(=O)=O`: < 1 nM; for `Cc1ccc([C@@H](c2ccn3c(C(F)(F)F)nnc3c2C)C(C)(C)C(=O)O)cc1CN1CC2(CCOCC2)Oc2nc(N[C@H](C)CCO)ccc2S1(=O)=O`: < 1 nM. The same measure for `Cc1ccc([C@@H](CC(=O)O)c2ccn3c(C(F)(F)F)nnc3c2C)cc1CN1C[C@@H]2CCC(F)(F)CN2c2ncccc2S1(=O)=O`: < 1 nM. Regarding `Cc1ccc(C(CC(=O)O)c2ccc3c(nnn3CC3CC3)c2C)cc1CN1C[C@H]2CCCN2c2ncccc2S1(=O)=O` (stereo not given in full), the Kd was < 1 nM.

Take `Cc1ccc(C(CC(=O)O)c2ccn3c(C(F)F)nnc3c2C)cc1CN1CC2(CC2)Oc2ncc(Cl)cc2S1(=O)=O` (stereo not given): the Kd is < 1 nM. The same measure for `Cc1ccc([C@@H](CC(=O)O)c2ccn3c(C(F)(F)F)nnc3c2C)cc1CN1C[C@]2(C)CCCN2c2ncccc2S1(=O)=O`: < 1 nM.
